Where two headings read alike, the source gives them in different places.

For the assay, the system named is FD (familial dysautomonia) IKBKAP minigene, exon 20 inclusion, in HEK293T cells. The experiment in a line: Primary splicing assay (FD IKBKAP minigene, Firefly/Renilla luciferase reporter in HEK293T). It is filed as cell-based, human. The conditions noted are these: Homo sapiens, HEK-293T; for EC (maximum kinetin efficacy): HEK293T, read-out: ECk (compound concentration at which the maximum kinetin efficacy (200 μM) is reached). A general note: A reporter such as luciferase makes a cellular process visible.

[1] abbreviates: max efficacy in Primary Assay, Firefly/Renilla ratio, kinetin and DMSO as positive and negative controls, 24 hours of treatment, read-out: Emax (%).
Setting [2] is: Firefly/Renilla ratio, 24 hours of treatment.

One may read the Emax as the maximal effect, on the per cent scale that the assay sets. In the case of `Clc1nc(NCc2nccs2)c2nc(OCCOc3ccccc3)[nH]c2n1` [(401)], the Emax under setting [1] amounted to 41.2%. Consider `O=C1CCCN1CCOc1nc2c(NCc3nccs3)nc(Cl)nc2[nH]1` [(402)], for which, under setting [1], the Emax stood at 21%. The same measure, in the same setting: under `CN(Cc1ccco1)c1ncnc2[nH]cnc12` [(403)] stands 39%. The same measure, in the same setting: with `c1cc(CNc2ncnc3[nH]cnc23)ccn1` [(404)] the figure was 51%. For `c1nc(NCc2cnn[nH]2)c2nc[nH]c2n1` [(406)], the Emax under setting [1] is 20%. Still for that read-out and setting: with `C[C@@H](Nc1ncnc2[nH]cnc12)c1ccco1` [(411)] the figure was 55%; with `Clc1cccc(CNc2ncnc3[nH]cnc23)c1` [(415)], 10.9%. The same measure, in the same setting: with `Clc1ccccc1CNc1[nH]cnc2ncnc1-2` [(426)] the figure was 59%; with `c1csc(CNc2[nH]cnc3ncnc2-3)c1` [(438)], 44%. The same measure, in the same setting: with `COc1ccc(C(=O)Nc2ncnc3[nH]cnc23)cc1` [(441)] the figure was 42.8%; with `Fc1ccc(CCNc2ncnc3[nH]cnc23)cc1` [(442)], 58.6%; with `Clc1nc(NCc2cccs2)c2[nH]cnc2n1` [(456)], 52.3%. On to `Clc1nc(NCc2ccco2)c2[nH]cnc2n1` [(458)], for which the Emax under setting [1] was 73.1%. On the same count and under the same terms, under `OC[C@H]1O[C@@H](n2cnc3c(NCc4ccco4)ncnc32)[C@H](O)[C@@H]1O` [(463)] stands 90%.

Turning to `c1nc(NCc2ccoc2)c2nc[nH]c2n1` [(465)], the Emax (max efficacy, value marked (RT-PCR), footnote a: Firefly inhibitor, read-out: Emax (%) (RT-PCR)) was found to be 26.3%.

Take `Clc1nc2c(c(NCc3ccco3)n1)CCC2` [(466)]: the EC (maximum kinetin efficacy) under setting [2] was found to be 3.66 µM. Also, under setting [1], the Emax was 221%.

As for `CC(=O)N1CC(Oc2nc3c(NCc4nccs4)nc(Cl)nc3[nH]2)C1` [(469)], under setting [1], the Emax was found to be 13.3%. For the molecule `Cn1c(=O)[nH]c2nc(Cl)nc(NCc3nccs3)c21` [(470)], under setting [1], the Emax was 76.8%. As for `CC(C)(C)OC(=O)N1CC(COc2nc3c(NCc4nccs4)nc(Cl)nc3[nH]2)C1` [(471)], the EC (maximum kinetin efficacy) under setting [2] came to 1.63 µM. Moreover, under setting [1], the Emax was determined as 149%. On to `Clc1nc(NCc2ccco2)c2nc(OC[C@@H]3CCOC3)[nH]c2n1` [(472)], for which the EC (maximum kinetin efficacy) under setting [2] came out at 1.16 µM. Also, under setting [1], the Emax came out at 151%.

For `Clc1nc(NCc2nccs2)c2nc(OC[C@@H]3CCOC3)[nH]c2n1` [(473)], the EC (maximum kinetin efficacy) under setting [2] turned out to be 2.1 µM. Besides, the Emax under setting [1] turned out to be 130%.

With `Clc1nc(NCc2ccco2)c2nc(OCC#Cc3ccccc3)[nH]c2n1` [(474)], the Emax under setting [1] was 24.9%. In the case of `Clc1nc(NCc2nccs2)c2nc(OCC#Cc3ccccc3)[nH]c2n1` [(476)], the Emax under setting [1] worked out at 25.5%.

Turning to `CC(C)COc1nc2c(NCc3ccco3)nc(Cl)nc2[nH]1` [(477)], under setting [2], the EC (maximum kinetin efficacy) turned out to be 2.28 µM. Moreover, the maximum response (Emax) under setting [1] came out at 108%. As to `CC(C)(C)COc1nc2c(NCc3ccco3)nc(Cl)nc2[nH]1` [(478)], under setting [1], the maximum response (Emax) stood at 84.1%. For the molecule `CC#CCOc1nc2c(NCc3nccs3)nc(Cl)nc2[nH]1` [(479)], the EC (maximum kinetin efficacy) under setting [2] came to 3.23 µM. The maximal response (Emax) under setting [1] is 144%.

For the molecule `Clc1nc(NCc2ccco2)c2nc(OCCOc3ccccc3)[nH]c2n1` [(481)], under setting [2], the EC (maximum kinetin efficacy) came to 4.14 µM. Also, under setting [1], the Emax was 93.4%. Turning to `CC(C)(C)OCCOc1nc2c(NCc3nccs3)nc(Cl)nc2[nH]1` [(482)], the EC (maximum kinetin efficacy) under setting [2] amounted to 11.1 µM. In addition, under setting [1], the Emax came out at 99.1%.

On to `Clc1nc(NCc2nccs2)c2nc(OCc3ccccc3)[nH]c2n1` [(483)], for which the EC (maximum kinetin efficacy) under setting [2] was 1.26 µM. Further, under setting [1], the Emax was 138%.

For the molecule `CC#CCOc1nc2c(NCc3ccco3)nc(Cl)nc2[nH]1` [(486)], the EC (maximum kinetin efficacy) under setting [2] stood at 2.57 µM. For the same molecule, under setting [1], the Emax came out at 150%. For `Fc1cc(CNc2nc(Cl)nc3[nH]ccc23)ccn1` [(487)], in that order: 6.1 µM and 114%.

On to `FC1(F)CC(COc2nc3c(NCc4cscn4)nc(Cl)nc3[nH]2)C1` [(488)], for which the EC (maximum kinetin efficacy) under setting [2] came to 1.02 µM. Besides, the Emax under setting [1] was found to be 206%. In the case of `Clc1nc(NCc2ccco2)c2nc(OCCC3CC3)[nH]c2n1` [(489)], the EC (maximum kinetin efficacy) under setting [2] turned out to be 1.21 µM. In addition, under setting [1], the Emax worked out at 131%. For `Clc1nc(NCc2ccco2)c2nc(OCc3ccccc3)[nH]c2n1` [(490)], in that order: 0.62 µM and 176%. On the same counts, the results for `CC(C)COc1nc2c(NCc3nccs3)nc(Cl)nc2[nH]1` [(491)] are 0.48 µM and 155%. `Clc1nc(NCc2ccco2)c2nc(OCCc3ccccc3)[nH]c2n1` [(492)]: the Emax under setting [1] came to 54.5%. As for `Clc1nc(NCc2cscn2)c2nc(OCC3CCO3)[nH]c2n1` (stereo not shown) [(493)], under setting [2], the EC (maximum kinetin efficacy) was 3.05 µM. Under setting [1], the maximal response (Emax) turned out to be 168%. With `Fc1cccc(CNc2nc(Cl)nc3[nH]ccc23)n1` [(494)], the Emax under setting [1] worked out at 14.1%.

For `Fc1cccnc1CNc1nc(Cl)nc2[nH]ccc12` [(495)], under setting [1], the Emax is 13.9%.

For `CC(F)(F)COc1nc2c(NCc3cscn3)nc(Cl)nc2[nH]1` [(496)], the EC (maximum kinetin efficacy) under setting [2] turned out to be 1.03 µM. For the same molecule, the Emax under setting [1] is 233%. On to `Clc1nc(NCc2cscn2)c2nc(OC3COC3)[nH]c2n1` [(497)], for which the EC (maximum kinetin efficacy) under setting [2] worked out at 5.56 µM. The Emax under setting [1] turned out to be 120%. Take `Clc1nc(NCc2csnn2)c2cc[nH]c2n1` [(498)]: the Emax under setting [1] was found to be 37.7%. For the molecule `FC(F)(F)CCOc1nc2c(NCc3cscn3)nc(Cl)nc2[nH]1` [(499)], the EC (maximum kinetin efficacy) under setting [2] came out at 1.67 µM. Besides, the Emax under setting [1] came out at 156%. For `Clc1nc(NCc2nccs2)c2nc(OCc3ccccn3)[nH]c2n1` [(500)], in that order: 3 µM and 141%. Regarding `Clc1nc(NCc2nncs2)c2cc[nH]c2n1` [(501)], the Emax under setting [1] was determined as 18.1%.

Turning to `Clc1nc2c(c(NCc3nccs3)n1)COC2` [(502)], under setting [1], the Emax came to 28%. Same read-out and setting: with `Clc1nc2c(c(NCc3ccco3)n1)COC2` [(503)] the figure was 27.2%; with `COC(=O)COc1nc2c(NCc3nccs3)nc(Cl)nc2[nH]1` [(504)], 80%.

In the case of `Clc1nc(NCc2nccs2)c2nc(OCc3ncco3)[nH]c2n1` [(505)], under setting [2], the EC (maximum kinetin efficacy) was determined as 8.07 µM. Further, the Emax under setting [1] amounted to 140%. For `Clc1nc(NCc2nccs2)c2nc(OCc3cccnc3)[nH]c2n1` [(506)], in that order: 1.14 µM and 144%. On the same counts, the results for `Clc1nc(NCc2nccs2)c2nc(OCc3ccncc3)[nH]c2n1` [(507)] are 0.77 µM and 167%. Regarding `CC(C)(C)OC(=O)N1Cc2nc(Cl)nc(NCc3ccco3)c2C1` [(508)], the Emax under setting [1] was 80%.

In the case of `CC(C)(C)OC(=O)N1Cc2nc(Cl)nc(NCc3nccs3)c2C1` [(509)], the Emax under setting [1] came to 40.8%. With `CC(=O)N1Cc2nc(Cl)nc(NCc3nccs3)c2C1` [(510)], the Emax under setting [1] came to 20%.

`O=C(O)COc1nc2c(NCc3nccs3)nc(Cl)nc2[nH]1` [(511)]: the Emax under setting [1] stood at 35.1%.

Turning to `c1nc2nc[nH]c(NC3CCCCCC3)c-2n1` [(512)], the Emax under setting [1] came out at 43.7%.

Source of the values: patent US11702417B2, “Compounds for improving mRNA splicing” (The General Hospital Corporation, priority 2015, dated 2023).
